Test results as given in US20250324971A1, “HERBICIDAL DERIVATIVES” (SYNGENTA CROP PROTECTION AG, priority 2022, published 2025).

What was measured:
Format in all cases: in vivo
Setaria faberi (SETFA) [1] = test: Pre-Emergence Test (herbicidal, glasshouse pots); details: evaluated after 13 days, five-point scale
[2] = test system: Ipomoea hederacea (IPOHE); test: Pre-Emergence Test (herbicidal, glasshouse pots); details: evaluated after 13 days, five-point scale
[3] = test system: Echinochloa crus-galli (ECHCG); test: Pre-Emergence Test (herbicidal, glasshouse pots); details: evaluated after 13 days, five-point scale
[4] = test system: Amaranthus retoflexus (AMARE); test: Pre-Emergence Test (herbicidal, glasshouse pots); details: evaluated after 13 days, five-point scale
Zea mays (ZEAMX) [5] = test: Pre-Emergence Test (herbicidal, glasshouse pots); details: evaluated after 13 days, five-point scale
[6] = test system: Amaranthus palmeri (AMAPA); test: Pre-Emergence Test (herbicidal, glasshouse pots); details: evaluated after 13 days, five-point scale
[7] = test system: Amaranthus palmeri (AMAPA); test: Post-Emergence Test (herbicidal, glasshouse pots); details: evaluated after 13 days
In short: (§1)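 Pots in glasshouse (24/16 °C, 14 h light, 65% RH), sprayed with a.i. in acetone/water 50:50 + 0.5% Tween 20; rate in g/ha. Watered twice daily; % damage read at 13 d, scored 5=81-100%, 4=61-80%, 3=41-60%, 2=21-40%, 1=0-20%.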

[8] = test system: Amaranthus retoflexus (AMARE); test: Post-Emergence Test (herbicidal, glasshouse pots); details: evaluated after 13 days
In short: as §1

[9] = test system: Echinochloa crus-galli (ECHCG); test: Post-Emergence Test (herbicidal, glasshouse pots); details: evaluated after 13 days
In short: as §1

[10] = test system: Ipomoea hederacea (IPOHE); test: Post-Emergence Test (herbicidal, glasshouse pots); details: evaluated after 13 days
In short: as §1

Setaria faberi (SETFA) [11] = test: Post-Emergence Test (herbicidal, glasshouse pots); details: evaluated after 13 days
In short: as §1

Zea mays (ZEAMX) [12] = test: Post-Emergence Test (herbicidal, glasshouse pots); details: evaluated after 13 days
In short: as §1

Row | SMILES | percentage damage caused to the plant, SETFA (Setaria faberi (SETFA) [1]; rate 250 g/ha) | percentage damage caused to the plant, IPHOE ([2]; rate 250 g/ha) | percentage damage caused to the plant, ECHCG ([3]; rate 250 g/ha) | percentage damage caused to the plant, AMARE ([4]; rate 250 g/ha) | percentage damage caused to the plant, ZEAMX (Zea mays (ZEAMX) [5]; rate 250 g/ha) | percentage damage caused to the plant, AMAPA ([6]; rate 250 g/ha) | Post-Emergence Test AMAPA percentage damage (five-point scale) ([7]; rate 250 g/ha) | Post-Emergence Test AMARE percentage damage (five-point scale) ([8]; rate 250 g/ha) | Post-Emergence Test ECHCG percentage damage (five-point scale) ([9]; rate 250 g/ha) | Post-Emergence Test IPHOE percentage damage (five-point scale) ([10]; rate 250 g/ha) | Post-Emergence Test SETFA percentage damage (five-point scale) (Setaria faberi (SETFA) [11]; rate 250 g/ha) | Post-Emergence Test ZEAMX percentage damage (five-point scale) (Zea mays (ZEAMX) [12]; rate 250 g/ha) | other results
1 | CCn1c(OC2CC2)cc(=O)c(C(=O)O)c1-c1ccc(Cl)c(Cl)c1 [Compound 45, 6-(cyclopropoxy)-2-(3,4-dichlorophenyl)-1-ethyl-4-oxo-pyridine-3-carboxylic acid] | 1 (1=0-20%) | 0 | 0 | 2 (2=21-40%) | 0 | 1 (1=0-20%) | 2 (2=21-40%) | 1 (1=0-20%) | 2 (2=21-40%) | 3 (3=41-60%) | 3 (3=41-60%) | 1 (1=0-20%) | –
2 | CCn1c(Oc2cc(C)on2)cc(=O)c(C(=O)O)c1-c1ccc(Cl)c(Cl)c1 [Compound 46, 2-(3,4-dichlorophenyl)-1-ethyl-6-(5-methylisoxazol-3-yl)oxy-4-oxo-pyridine-3-carboxylic acid] | 1 (1=0-20%) | 2 (2=21-40%) | 1 (1=0-20%) | 2 (2=21-40%) | 0 | 1 (1=0-20%) | 0 | 2 (2=21-40%) | 1 (1=0-20%) | 3 (3=41-60%) | 0 | 0 | –
3 | C#CC(C)Oc1cc(=O)c(C(=O)O)c(-c2ccc(Cl)c(Cl)c2)n1CC (stereo not drawn) [Compound 49, 2-(3,4-dichlorophenyl)-1-ethyl-6-(1-methylprop-2-ynoxy)-4-oxo-pyridine-3-carboxylic acid] | 1 (1=0-20%) | 1 (1=0-20%) | 1 (1=0-20%) | 1 (1=0-20%) | 0 | 0 | 4 (4=61-80%) | 1 (1=0-20%) | 0 | 1 (1=0-20%) | 0 | 1 (1=0-20%) | –
4 | CCn1c(Oc2ccc(F)nc2)cc(=O)c(C(=O)O)c1-c1ccc(Cl)c(Cl)c1 [Compound 52, 2-(3,4-dichlorophenyl)-1-ethyl-6-[(6-fluoro-3-pyridyl)oxy]-4-oxo-pyridine-3-carboxylic acid] | 5 (5=81-100%) | 3 (3=41-60%) | 4 (4=61-80%) | 3 (3=41-60%) | 5 (5=81-100%) | 2 (2=21-40%) | 1 (1=0-20%) | 4 (4=61-80%) | 4 (4=61-80%) | 4 (4=61-80%) | 4 (4=61-80%) | 4 (4=61-80%) | –
5 | CCn1c(Oc2ccc(C)cc2)cc(=O)c(C(=O)O)c1-c1ccc(Cl)c(Cl)c1 [Compound 53, 2-(3,4-dichlorophenyl)-1-ethyl-6-(4-methylphenoxy)-4-oxo-pyridine-3-carboxylic acid] | 1 (1=0-20%) | 1 (1=0-20%) | 0 | 2 (2=21-40%) | 0 | 0 | 4 (4=61-80%) | 3 (3=41-60%) | 0 | 4 (4=61-80%) | 1 (1=0-20%) | 1 (1=0-20%) | –
6 | CCn1c(Oc2ccnc(Cl)c2)cc(=O)c(C(=O)O)c1-c1ccc(Cl)c(Cl)c1 [Compound 54, 6-[(2-chloro-4-pyridyl)oxy]-2-(3,4-dichlorophenyl)-1-ethyl-4-oxo-pyridine-3-carboxylic acid] | 5 (5=81-100%) | 4 (4=61-80%) | 4 (4=61-80%) | 3 (3=41-60%) | 1 (1=0-20%) | 1 (1=0-20%) | 3 (3=41-60%) | 4 (4=61-80%) | 3 (3=41-60%) | 4 (4=61-80%) | 3 (3=41-60%) | 4 (4=61-80%) | –
7 | CCn1c(Oc2cc(C3CC3)on2)cc(=O)c(C(=O)O)c1-c1ccc(Cl)c(Cl)c1 [Compound 55, 6-(5-cyclopropylisoxazol-3-yl)oxy-2-(3,4-dichlorophenyl)-1-ethyl-4-oxo-pyridine-3-carboxylic acid] | 1 (1=0-20%) | 0 | 1 (1=0-20%) | 1 (1=0-20%) | 0 | 0 | 4 (4=61-80%) | 4 (4=61-80%) | 2 (2=21-40%) | 3 (3=41-60%) | 2 (2=21-40%) | 2 (2=21-40%) | –
8 | CCn1c(Oc2cc(C(F)F)n(C)n2)cc(=O)c(C(=O)O)c1-c1ccc(Cl)c(Cl)c1 [Compound 56, 2-(3,4-dichlorophenyl)-6-[5-(difluoromethyl)-1-methyl-pyrazol-3-yl]oxy-1-ethyl-4-oxo-pyridine-3-carboxylic acid] | – | – | – | – | – | – | – | – | – | – | – | – | percentage damage caused to the plant, SETFA (Setaria faberi (SETFA) [1]; rate 62.5 g/ha): 1 (1=0-20%); percentage damage caused to the plant, IPHOE ([2]; rate 62.5 g/ha): 0; percentage damage caused to the plant, ECHCG ([3]; rate 62.5 g/ha): 0; percentage damage caused to the plant, AMARE ([4]; rate 62.5 g/ha): 0; percentage damage caused to the plant, ZEAMX (Zea mays (ZEAMX) [5]; rate 62.5 g/ha): 0; percentage damage caused to the plant, AMAPA ([6]; rate 62.5 g/ha): 0; Post-Emergence Test AMAPA percentage damage (five-point scale) ([7]; rate 62.5 g/ha): 3 (3=41-60%); Post-Emergence Test AMARE percentage damage (five-point scale) ([8]; rate 62.5 g/ha): 2 (2=21-40%); Post-Emergence Test ECHCG percentage damage (five-point scale) ([9]; rate 62.5 g/ha): 2 (2=21-40%); Post-Emergence Test IPHOE percentage damage (five-point scale) ([10]; rate 62.5 g/ha): 3 (3=41-60%); Post-Emergence Test SETFA percentage damage (five-point scale) (Setaria faberi (SETFA) [11]; rate 62.5 g/ha): 3 (3=41-60%); Post-Emergence Test ZEAMX percentage damage (five-point scale) (Zea mays (ZEAMX) [12]; rate 62.5 g/ha): 0
9 | CCn1ccc(Oc2cc(=O)c(C(=O)O)c(-c3ccc(Cl)c(Cl)c3)n2CC)n1 [Compound 57, 2-(3,4-dichlorophenyl)-1-ethyl-6-(1-ethylpyrazol-3-yl)oxy-4-oxo-pyridine-3-carboxylic acid] | 5 (5=81-100%) | 4 (4=61-80%) | 4 (4=61-80%) | 4 (4=61-80%) | 5 (5=81-100%) | 3 (3=41-60%) | 4 (4=61-80%) | 4 (4=61-80%) | 4 (4=61-80%) | 4 (4=61-80%) | 4 (4=61-80%) | 4 (4=61-80%) | –
10 | CCn1c(Oc2ccn(C3CC3)n2)cc(=O)c(C(=O)O)c1-c1ccc(Cl)c(Cl)c1 [Compound 58, 6-(1-cyclopropylpyrazol-3-yl)oxy-2-(3,4-dichlorophenyl)-1-ethyl-4-oxo-pyridine-3-carboxylic acid] | 5 (5=81-100%) | 5 (5=81-100%) | 5 (5=81-100%) | 4 (4=61-80%) | 5 (5=81-100%) | 3 (3=41-60%) | 3 (3=41-60%) | 4 (4=61-80%) | 3 (3=41-60%) | 4 (4=61-80%) | 3 (3=41-60%) | 4 (4=61-80%) | –
